Measured values published in the NIST ThermoML archive (doi:10.1016/j.jct.2009.04.015).
Several values for one entry are separate records, joined by “and”; a condition that tells them apart may be missing. Identical values can stand only once.

Settings: Crystal, Calculated from knudsen effusion weight loss

Cc1ccc(O)cc1O [1,3-benzenediol, 4-methyl-]
Settings	vapor or sublimation pressure
317.2 K	0.000134 kPa and 0.000129 kPa and 0.000128 kPa
319.22 K	0.000175 kPa and 0.00017 kPa and 0.000166 kPa
321.11 K	0.00022 kPa and 0.000215 kPa and 0.000211 kPa
323.21 K	0.000266 kPa and 0.000262 kPa and 0.000282 kPa
325.23 K	0.000361 kPa and 0.000344 kPa and 0.000336 kPa
327.13 K	0.000451 kPa and 0.000438 kPa and 0.000432 kPa
329.21 K	0.000572 kPa and 0.000562 kPa and 0.000561 kPa
331.21 K	0.000742 kPa and 0.000724 kPa and 0.000719 kPa
333.12 K	0.000933 kPa and 0.000916 kPa and 0.000886 kPa

Cc1c(O)cccc1O [1,3-dihydroxy-2-methylbenzene]
Settings	vapor or sublimation pressure
309.22 K	0.000109 kPa and 0.000107 kPa and 0.000103 kPa
311.2 K	0.000141 kPa and 0.000136 kPa and 0.000132 kPa
313.12 K	0.000176 kPa and 0.000172 kPa and 0.000171 kPa
315.21 K	0.000224 kPa and 0.000217 kPa and 0.000227 kPa
317.12 K	0.000287 kPa and 0.00028 kPa and 0.000276 kPa
319.2 K	0.000358 kPa and 0.00035 kPa and 0.000341 kPa
321.19 K	0.000456 kPa and 0.000446 kPa and 0.000437 kPa
323.12 K	0.000578 kPa and 0.000559 kPa and 0.000553 kPa
325.21 K	0.000724 kPa and 0.000694 kPa and 0.000673 kPa
327.17 K	0.000896 kPa and 0.000883 kPa and 0.000851 kPa
329.11 K	0.001115 kPa and 0.001099 kPa and 0.001081 kPa

Cc1cc(O)ccc1O [1,4-benzenediol, 2-methyl-]
Settings	vapor or sublimation pressure
325.21 K	0.000147 kPa and 0.000144 kPa and 0.000138 kPa
327.15 K	0.000189 kPa and 0.000182 kPa and 0.000173 kPa
329.11 K	0.000239 kPa and 0.000229 kPa and 0.000226 kPa
331.19 K	0.000292 kPa and 0.000277 kPa and 0.000298 kPa
333.14 K	0.000375 kPa and 0.000361 kPa and 0.000348 kPa
335.11 K	0.000481 kPa and 0.000462 kPa and 0.000448 kPa
337.2 K	0.00061 kPa and 0.000607 kPa and 0.000569 kPa
339.14 K	0.000751 kPa and 0.000731 kPa and 0.000704 kPa
341.12 K	0.000957 kPa and 0.000916 kPa and 0.00089 kPa

Cc1cc(O)cc(O)c1 [5-methyl-1,3-benzenediol]
Settings	vapor or sublimation pressure
322.2 K	0.000157 kPa and 0.000153 kPa
324.16 K	0.000199 kPa and 0.000196 kPa and 0.000193 kPa
326.1 K	0.000246 kPa and 0.000245 kPa
328.2 K	0.000304 kPa and 0.000311 kPa and 0.000303 kPa
330.14 K	0.000394 kPa and 0.000383 kPa and 0.000378 kPa
332.1 K	0.000499 kPa and 0.000485 kPa and 0.000482 kPa
334.19 K	0.000607 kPa and 0.000596 kPa and 0.000591 kPa
336.13 K	0.000766 kPa and 0.000754 kPa and 0.000734 kPa
338.1 K	0.000974 kPa and 0.000935 kPa and 0.000932 kPa
